Experimental data published in PubChem BioAssay AID2060504 (Molecular Pharmacology Branch, DTP, NCI, 2025).

Tested on: 636577-100-R-J1-PDC complex spheroid viability
Assay: Anticancer human tumor 636577-100-R-J1-PDC patient-derived endometrial adenocarcinoma cell line growth inhibition [GQUAD]
Details: for IC50: curve of first compound; for viability, T/C: stronger effect = lower value
Summary of the method: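 Multi-cell-type spheroids of tumor cells with HUVEC and mesenchymal stem cells, treated with drug combinations. Concentrations descend in half-log steps from near clinical Cmax, or from 10 microM where Cmax is unknown; viability read-out.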

[1] = second compound 0.0316 µM, first compound 0.0316 µM
[2] = second compound 0.0316 µM, first compound 0.1 µM
[3] = second compound 0.0316 µM, first compound 0.316 µM
[4] = second compound 0.0316 µM, first compound 1 µM
[5] = second compound 0.0316 µM, first compound 3.16 µM
[6] = second compound 0.0316 µM, first compound 10 µM
[7] = second compound 0.1 µM, first compound 0.0316 µM
[8] = second compound 0.1 µM, first compound 0.1 µM
[9] = second compound 0.1 µM, first compound 0.316 µM
[10] = second compound 0.1 µM, first compound 1 µM
[11] = second compound 0.1 µM, first compound 3.16 µM
[12] = second compound 0.1 µM, first compound 10 µM
[13] = second compound 0.316 µM, first compound 0.0316 µM
[14] = second compound 0.316 µM, first compound 0.1 µM
[15] = second compound 0.316 µM, first compound 0.316 µM
[16] = second compound 0.316 µM, first compound 1 µM
[17] = second compound 0.316 µM, first compound 3.16 µM
[18] = second compound 0.316 µM, first compound 10 µM
[19] = second compound 1 µM, first compound 0.0316 µM
[20] = second compound 1 µM, first compound 0.1 µM
[21] = second compound 1 µM, first compound 0.316 µM
[22] = second compound 1 µM, first compound 1 µM
[23] = second compound 1 µM, first compound 3.16 µM
[24] = second compound 1 µM, first compound 10 µM
[25] = second compound 3.16 µM, first compound 0.0316 µM
[26] = second compound 3.16 µM, first compound 0.1 µM
[27] = second compound 3.16 µM, first compound 0.316 µM
[28] = second compound 3.16 µM, first compound 1 µM
[29] = second compound 3.16 µM, first compound 3.16 µM
[30] = second compound 3.16 µM, first compound 10 µM
[31] = second compound 10 µM, first compound 0.0316 µM
[32] = second compound 10 µM, first compound 0.1 µM
[33] = second compound 10 µM, first compound 0.316 µM
[34] = second compound 10 µM, first compound 1 µM
[35] = second compound 10 µM, first compound 3.16 µM
[36] = second compound 10 µM, first compound 10 µM
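Also: viability read after seven days of drug exposure.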
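For viability, T/C in this document: luminescence signal used as a proxy for viable cells; 100% = DMSO vehicle control wells.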

## Cc1cccc(N(C)C(=O)C2C(O)CCN2c2nc(C)cc(C(F)(F)F)c2C#N)c1 (centres undefined) + CN(C)c1ccc(Nc2c3ccc(NC(=O)CCN4CCCC4)cc3nc3cc(NC(=O)CCN4CCCC4)ccc23)cc1
Second compound 0.0316 µM
  IC50: > 10 µM
Second compound 0.1 µM
  IC50: > 10 µM
Second compound 0.316 µM
  IC50: > 10 µM
Second compound 1 µM
  IC50: > 10 µM
Second compound 3.16 µM
  IC50: < 0.0316 µM
Second compound 10 µM
  IC50: < 0.0316 µM
[1]
  viability, T/C: 78%
[2]
  viability, T/C: 78.9%
[3]
  viability, T/C: 97.2%
[4]
  viability, T/C: 102%
[5]
  viability, T/C: 92.1%
[6]
  viability, T/C: 86%
[7]
  viability, T/C: 105%
[8]
  viability, T/C: 73.6%
[9]
  viability, T/C: 89.7%
[10]
  viability, T/C: 92.8%
[11]
  viability, T/C: 92.8%
[12]
  viability, T/C: 82.9%
[13]
  viability, T/C: 80.6%
[14]
  viability, T/C: 79.7%
[15]
  viability, T/C: 91.3%
[16]
  viability, T/C: 88.5%
[17]
  viability, T/C: 96.9%
[18]
  viability, T/C: 78.3%
[19]
  viability, T/C: 78.1%
[20]
  viability, T/C: 87.2%
[21]
  viability, T/C: 78.6%
[22]
  viability, T/C: 71.5%
[23]
  viability, T/C: 76.4%
[24]
  viability, T/C: 57.4%
[25]
  viability, T/C: 34.9%
[26]
  viability, T/C: 47.4%
[27]
  viability, T/C: 45.8%
[28]
  viability, T/C: 31.6%
[29]
  viability, T/C: 30.1%
[30]
  viability, T/C: 27.2%
[31]
  viability, T/C: 7.75%
[32]
  viability, T/C: 6.99%
[33]
  viability, T/C: 4.7%
[34]
  viability, T/C: 4.67%
[35]
  viability, T/C: 2.93%
[36]
  viability, T/C: 0.73%

## O=c1[nH]cc(F)c(=O)[nH]1 + CN(C)c1ccc(Nc2c3ccc(NC(=O)CCN4CCCC4)cc3nc3cc(NC(=O)CCN4CCCC4)ccc23)cc1
Second compound 0.0316 µM
  IC50: 4.91 µM
Second compound 0.1 µM
  IC50: 3.69 µM
Second compound 0.316 µM
  IC50: 5.53 µM
Second compound 1 µM
  IC50: 3.16 µM
Second compound 3.16 µM
  IC50: < 0.0316 µM
Second compound 10 µM
  IC50: < 0.0316 µM
[1]
  viability, T/C: 83.1%
[2]
  viability, T/C: 85.7%
[3]
  viability, T/C: 87.9%
[4]
  viability, T/C: 79.5%
[5]
  viability, T/C: 62.5%
[6]
  viability, T/C: 30.1%
[7]
  viability, T/C: 105%
[8]
  viability, T/C: 110%
[9]
  viability, T/C: 72.3%
[10]
  viability, T/C: 63.6%
[11]
  viability, T/C: 67.5%
[12]
  viability, T/C: 27.4%
[13]
  viability, T/C: 88%
[14]
  viability, T/C: 75.3%
[15]
  viability, T/C: 75.6%
[16]
  viability, T/C: 79.9%
[17]
  viability, T/C: 69.5%
[18]
  viability, T/C: 29.2%
[19]
  viability, T/C: 67.5%
[20]
  viability, T/C: 88.8%
[21]
  viability, T/C: 70.5%
[22]
  viability, T/C: 65.3%
[23]
  viability, T/C: 50.8%
[24]
  viability, T/C: 26%
[25]
  viability, T/C: 43.7%
[26]
  viability, T/C: 44.2%
[27]
  viability, T/C: 49.5%
[28]
  viability, T/C: 32.1%
[29]
  viability, T/C: 27.7%
[30]
  viability, T/C: 21%
[31]
  viability, T/C: 7%
[32]
  viability, T/C: 6.98%
[33]
  viability, T/C: 6.89%
[34]
  viability, T/C: 6.25%
[35]
  viability, T/C: 6.48%
[36]
  viability, T/C: 3.81%
